Here are results for four molecules from ChEMBL document CHEMBL2016443, “From ApoA1 upregulation to BET family bromodomain inhibition: discovery of I-BET151” (Bioorg Med Chem Lett, 2012).

The source made the active and inactive calls. The rule behind the calls is not given here.

Data set [1] relates to Mus musculus. As to the kind of experiment: Antiinflammatory activity in LPS-stimulated acute inflammation BALB/c mouse model assessed as inhibition of plasma TNF-alpha level at 10 mg/kg, po administered 2 hrs before LPS challenge. In kind it is functional.
Data set [2] relates to Mus musculus. As to the kind of experiment: Antiinflammatory activity in LPS-stimulated acute inflammation BALB/c mouse model assessed as inhibition of plasma PAI-1 level at 10 mg/kg, po administered 2 hrs before LPS challenge. In kind it is functional.
The subject of data set [3] is Mus musculus. As to the kind of experiment: Antiinflammatory activity in LPS-stimulated acute inflammation BALB/c mouse model assessed as inhibition of plasma IL-6 level at 10 mg/kg, po administered 2 hrs before LPS challenge. In kind it is functional.
In data set [4] the test system is Mus musculus. As to the kind of experiment: Antiinflammatory activity in LPS-stimulated acute inflammation BALB/c mouse model assessed as inhibition of plasma MCP-1 level at 10 mg/kg, po administered 2 hrs before LPS challenge. In kind it is functional.
The nature of data set [5]: Volume of distribution at steady state in CD rat. In kind it is ADME, organism-based. The note with it: in vivo, read-out: Vdss.
Data set [6] deals with Hepatocyte. As to the kind of experiment: Bioactivation in human hepatocytes assessed as glutathione trapping. It counts as cell-based.
Data set [7] relates to PBMC. As to the kind of experiment: Inhibition of LPS-stimulated TNFalpha production in human PBMC. In kind it is functional, cell-based.
A short description of data set [8]: (§1) Half life in CD rat. It counts as ADME, organism-based. The note with it: CD, in vivo.
The subject of data set [9] is Hepatocyte. As to the kind of experiment: Bioactivation in rat hepatocytes assessed as glutathione trapping. In kind it is cell-based.
A further data set relates to THP-1. As to the kind of experiment: Antiinflammatory activity in human THP1 cells. It counts as functional, cell-based.
The target of the next data set is Cytochrome P450 3A4 (Homo sapiens, UniProt P08684). As to the kind of experiment: Inhibition of CYP3A4. In kind it is ADME.
Cytochrome P450 3A4, sequence (P08684 whole entry): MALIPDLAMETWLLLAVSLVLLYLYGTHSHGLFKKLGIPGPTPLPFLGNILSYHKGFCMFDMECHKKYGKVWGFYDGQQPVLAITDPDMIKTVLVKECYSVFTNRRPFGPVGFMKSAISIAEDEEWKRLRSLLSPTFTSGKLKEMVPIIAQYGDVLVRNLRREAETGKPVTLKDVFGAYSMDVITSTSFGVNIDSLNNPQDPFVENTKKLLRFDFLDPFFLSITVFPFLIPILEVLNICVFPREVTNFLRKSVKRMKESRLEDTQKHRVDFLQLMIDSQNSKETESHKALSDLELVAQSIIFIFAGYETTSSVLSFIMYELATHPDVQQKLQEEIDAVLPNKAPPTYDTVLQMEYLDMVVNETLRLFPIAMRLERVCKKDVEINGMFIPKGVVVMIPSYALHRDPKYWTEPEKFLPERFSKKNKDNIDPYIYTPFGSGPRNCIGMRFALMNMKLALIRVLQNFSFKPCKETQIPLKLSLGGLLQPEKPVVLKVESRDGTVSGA
For a further data set, the target named is Cytochrome P450 2C9 (Homo sapiens, UniProt P11712). As to the kind of experiment: Inhibition of CYP2C9. In kind it is ADME.
Cytochrome P450 2C9, sequence (P11712 whole entry): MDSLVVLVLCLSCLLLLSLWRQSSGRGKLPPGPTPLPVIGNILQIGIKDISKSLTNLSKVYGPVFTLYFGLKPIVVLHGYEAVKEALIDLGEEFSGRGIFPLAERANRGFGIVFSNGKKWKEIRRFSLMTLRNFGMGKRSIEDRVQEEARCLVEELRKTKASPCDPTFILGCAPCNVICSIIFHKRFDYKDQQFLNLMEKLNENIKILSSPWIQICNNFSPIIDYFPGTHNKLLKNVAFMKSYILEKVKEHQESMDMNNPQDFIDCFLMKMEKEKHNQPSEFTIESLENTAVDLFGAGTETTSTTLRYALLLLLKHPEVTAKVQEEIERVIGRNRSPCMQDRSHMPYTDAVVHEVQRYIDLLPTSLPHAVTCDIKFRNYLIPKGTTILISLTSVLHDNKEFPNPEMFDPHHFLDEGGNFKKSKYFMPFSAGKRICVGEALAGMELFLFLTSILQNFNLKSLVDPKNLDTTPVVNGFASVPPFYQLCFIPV
The next data set relates to Salmonella typhimurium. As to the kind of experiment: Mutagenic activity in Salmonella typhimurium by Ames assay. It counts as toxicity, organism-based. Particulars: salmonella enterica subsp. enterica serovar typhimurium. A general note: In the Ames test, an excess of revertant colonies over the control signals mutagenicity.
Data set [10] in a line: Clearance in iv dosed CD rat blood after 1 hr. It counts as ADME, organism-based. The note with it: whole blood.
For data set [11], the species on record is Rattus norvegicus. As to the kind of experiment: Dose normalized AUC (0 to infinity ) in CD rat. In kind it is ADME, organism-based. The note with it: in vivo.
The subject of the next data set is HepG2. As to the kind of experiment: Upregulation of ApoA1 expression in human HepG2 cells assessed as concentration required to increase 70% of luciferase activity after 18 hrs by luciferase reporter gene assay. It counts as functional. Background: In a reporter assay the amount or activity of a reporter protein is the signal.
Data set [12] is described as follows: Oral bioavailability in CD rat. The note with it: in vivo. It counts as ADME, organism-based.
In data set [13] the test system is Hepatocyte. As to the kind of experiment: Bioactivation in rat hepatocytes assessed as compound epoxidation. In kind it is cell-based.
Data set [14] has as its system Hepatocyte. As to the kind of experiment: Bioactivation in human hepatocytes assessed as compound epoxidation. In kind it is cell-based.
Data set [15] has as its system PBMC. As to the kind of experiment: Inhibition of LPS-stimulated IL-6 production in human PBMC. It counts as functional, cell-based.
For data set [16], the species on record is Rattus norvegicus. Described as §1. It counts as ADME, organism-based. The note with it: in vivo.

As to `C[C@]12C=CC(=O)C=C1CC[C@@H]1[C@@H]2[C@@H](O)C[C@@]2(C)[C@H]1CC[C@]2(O)C(=O)CO` [PREDNISOLONE], the inhibition in vivo (as a rule, the percentage by which the read-out fell short of the control) at 10 mg/kg with Mus musculus [1] is 94%; in the data set on Mus musculus [2], 43%; with Mus musculus [3], 59%; in the data set with Mus musculus [4], 49%.

Take `COc1cc2c(Nc3cccc4cccnc34)c(C(N)=O)cnc2cc1-c1c(C)noc1C`: the Vd in [5] was determined as 4 L/kg. Moreover, the Drug metabolism result in the data set on Hepatocyte [6], in the data set with Hepatocyte [9], with Hepatocyte [13] and in the data set with Hepatocyte [14] was “Active” throughout. For the same molecule, the result with PBMC [7], in the data set on THP-1 and in the data set on PBMC [15] was Active. For the same molecule, the half-life (usually how long it takes for the measured level to halve) in data set [8] is 1.1 h. Moreover, the IC50 – broadly, the concentration at which inhibition is half-maximal – came out at 3.9 µM against Cytochrome P450 3A4 and 2.8 µM at Cytochrome P450 2C9. Further, in the data set with Salmonella typhimurium, the Activity result was “Toxic”. Also, the clearance (usually the volume of plasma or blood freed of the substance per unit of time) in data set [10] worked out at 50 mL/min/kg. For the same molecule, in the data set filed under Rattus norvegicus [11], the AUC/dose came to 12 kg·min/L. Further, in the data set with HepG2, the EC170 amounted to 0.22 µM. The bioavailability (commonly dose-corrected exposure relative to a reference, in per cent) in [12] was 59%.

Turning to `COc1cc2c(cc1-c1c(C)noc1C)ncc1[nH]c(=O)n([C@H](C)c3ccccn3)c12`, the Vd in data set [5] came to 2.1 L/kg. Besides, the Drug metabolism result with Hepatocyte [6], in the data set with Hepatocyte [9], with Hepatocyte [13] and with Hepatocyte [14] was “Not Active” each time. For the same molecule, the inhibition entry in the data set with PBMC [7] and in the data set with PBMC [15] was “Dose-dependent effect” in each case. For the same molecule, the inhibition in vivo at 10 mg/kg in the data set with Mus musculus [1] turned out to be 65%; in the data set with Mus musculus [2], 35%; in the data set with Mus musculus [3] it was 75%; with Mus musculus [4] it was 47%. In the data set listed under Rattus norvegicus [16], this molecule came in with a t1/2 of 1.7 h. Further, in the data set with THP-1, the result was Active. On Cytochrome P450 2C9, this molecule displayed an IC50 of 9.9 µM. Further, in the data set with Salmonella typhimurium, the Activity result is recorded as “Non-toxic”. Further, the AUC/dose in the data set filed under Rattus norvegicus [11] came out at 38 kg·min/L. In addition, the EC170 with HepG2 is 0.09 µM. Moreover, the bioavailability in data set [12] is 66%.

As for `COc1cc2c(Nc3ccccc3N3CCOCC3)c(C(N)=O)cnc2cc1-c1c(C)noc1C`, the result in the data set on PBMC [7], in the data set on THP-1 and in the data set on PBMC [15] was Active. Further, the 50% inhibitory concentration (IC50) turned out to be 1.5 µM against Cytochrome P450 3A4 and 5.1 µM against Cytochrome P450 2C9. The EC170 in the data set on HepG2 worked out at 0.09 µM.
